# Laboratory results: a melting point compilation (Tetko et al.; mined from patent text by program, amines drawn as free bases though some values may be those of a salt)
row,melting point,SMILES
1,61 to 62 °C,CCOC(=O)CCc1cccc2c1Sc1cc(C#N)ccc1CC2
2,185 to 189 °C,Cc1cc(C)cc(S(=O)(=O)n2c(CCC(=O)O)cc3nc(C(F)(F)F)ccc32)c1
3,104 to 106 °C,CCNC(=O)c1c([Si](C)(C)C)ccc(/C=C/[N+](=O)[O-])c1Cl
4,244 to 246 °C,CC(C)Cn1cnc2c(N)nc3ccc(-c4cccnc4)cc3c21
5,202 °C,CCCNC(=O)c1ccccc1C(c1ccc(O)cc1)c1ccc(O)cc1
6,> 300 °C,O=S(=O)(c1cc(Cl)ccc1Cl)n1c2cc(O)c(O)cc2c2ccc(O)c(O)c21
7,146 to 148 °C,CC(C)(C)C(=O)C=Cc1cnc2ccccc2c1
8,159 °C,CN(C)C(=O)Sc1ccc(C(F)(F)F)cc1C(=O)c1ccc(C#N)cc1
9,138 °C,CC(=O)Cn1cnc2c1c(=O)n(CC1CC1)c(=O)n2Cc1ccccc1
10,222 to 223 °C,N#Cc1cnn2c1NCC=C2c1cc(Cl)ccc1Cl
11,198 to 200 °C,CNc1ccc2sc3ccc(Br)cc3c(=O)c2c1
12,147 to 148 °C,NNCCCS(=O)(=O)O
13,151 to 152 °C,Cc1nc(-n2cnn(Cc3ccc(OC(F)F)cc3)c2=O)sc1C(=O)NCc1cccnc1
14,200 to 202 °C,O=C1CCC(N2Cc3c(OCc4ccc(CN5CCC(c6cccc(F)c6)CC5)cc4)cccc3C2=O)C(=O)N1 (centres undefined)
15,98 to 100 °C,COC(=O)CCC(=O)c1cc(C(=O)N(C)C)cs1
16,104 to 106 °C,O=C(CNC(=O)c1ccc([N+](=O)[O-])cc1F)OCc1ccccc1
17,117 to 119 °C,CCCCOc1ncc(C(C)O)cc1-c1nc2c(CC)n(C3CN(CC)C3)nc2c(=O)[nH]1 (centres undefined)
18,176 to 177 °C,CCOC(=O)c1nc(-c2cccc(C)c2)cn1C
19,237 °C,COc1cccc(Cn2c(C(=O)O)c(-c3ccc(C(=O)NC4CC4)cc3)c3ccccc32)c1
20,267 to 269 °C,Nc1nc(-c2cc(Cl)ccc2Cl)nc(N2CCS(=O)CC2)n1
21,89 to 90.6 °C,N#Cc1ccc(OCC(F)(F)C(F)(F)C(F)(F)C(F)(F)COc2ccc([N+](=O)[O-])cc2[N+](=O)[O-])cc1
22,222 to 224 °C,N#Cc1ccc(CN2C(=O)C3CCCC3N(C(=O)CN3C(=O)c4ccccc4C3=O)c3ccccc32)cc1 (centres undefined)
23,78 to 80 °C,BrCCCOc1ccc(OCCCBr)cc1
24,154 to 155 °C,O=C(O)Cc1ccc2c(c1)CC(NS(=O)(=O)c1ccc(Cl)cc1)C2 (centres undefined)
25,80.5 to 82 °C,CCOC(=O)C1(C(=O)Nc2ccc(C(F)(F)F)cc2)CC1

row,melting point,SMILES
1,112 to 114 °C,O=C(O)c1ccccc1CNC1CCOC1=O (centres undefined)
2,128 to 130 °C,C[C@H]([C@](O)(Cn1cncn1)c1ccc(F)cc1F)S(=O)(=O)N1CCN(c2ccc(F)cc2)CC1
3,263 °C,O=C(C=Cc1ccccc1)Nc1ccc2ccc(Cl)nc2n1
4,258 to 260 °C,O=C(O)c1cccc(-c2ccc3ncn(Cc4ccc(Cl)cc4Cl)c3n2)c1
5,125 to 126 °C,CCCOC(=O)Nc1nc(=O)n(C2OC(C)C(O)C2O)cc1F (centres undefined)
6,208 to 210 °C,Cc1cc(C)c2c(c1)C(=O)CC21CNC(=O)C1 (centres undefined)
7,92 to 95 °C,CC(C)(C)C(=O)Oc1ccc(-c2nnn(CCO)n2)cc1
8,264 to 266 °C,COC(=O)c1cc(=O)c2cc(SC)ccc2[nH]1
9,140 °C,COc1ccc(CN(C)CCCCc2ccc(NC(=O)c3cccc4c(=O)c5ccccc5[nH]c34)cc2)cc1OC
10,147 to 150 °C,CN(C)c1cc(C(O)c2ccccc2)c([N+](=O)[O-])cc1[N+](=O)[O-] (centres undefined)
11,98 to 101 °C,COc1ccc(-n2cc(C(=O)N(CC(=O)O)c3ccc(OCC(C)(C)C)c(C#N)c3)c(C)n2)cc1
12,202 to 203 °C,CC(=O)OC1CC2(C)C(C(C)=O)=CCC2C2CCC3=CC(=O)C=CC3(C)C12F (centres undefined)
13,100 to 102 °C,Cc1sc2ccc(Cl)cc2c1C1=NCCO1
14,153 °C,O=C(c1cc(Cl)ccc1O)c1cc(Cl)cc([N+](=O)[O-])c1O
15,147 to 149 °C,CN(c1ncnc2c1ncn2Cc1ccccc1F)n1cccc1
16,66 to 68 °C,CCCOc1ccc(-c2cccc(/C=C/C(=O)OCC)c2)cc1OC
17,155 to 157 °C,N#CCN1C(=O)SC(=Cc2ccc(OCCc3ccccc3)cc2)C1=O
18,139 to 141 °C,CC(C)[C@H](NC(=O)OCc1ccccc1)C(=O)NCC(=O)OC(C)(C)C
19,126 to 128 °C,COc1cc(CCc2c(CO)ccc(OC)c2OC)cc(OC)c1
20,117 to 118 °C,CCN(CC)C(=O)c1cc(-c2ccc(OC)cc2)ccc1-c1ccccc1
21,174 to 175 °C,CCCCc1cc(C#N)sc1-c1ccc2c(c1)C(C)(C)OC(=S)N2
22,218 to 222 °C,C#Cc1cc(Nc2ncnc3cnc(F)cc23)ccc1Cl
23,169 to 171 °C,Cc1nc(N2CCN(Cc3ccccc3)C2=O)sc1C(=O)NCc1ccccc1
24,190 to 191 °C,COCOc1ccccc1-c1cc(-c2ccccc2C(=O)OC)c(C#N)c(NC(=O)c2cccs2)n1
25,75 to 77 °C,O=C(NC/C=C\COc1cc(CN2CCCCC2)ccn1)c1ccc(Cl)s1

row,melting point,SMILES
1,180 to 184 °C,O=c1c(Cl)c(OCc2ccc(F)cc2F)ccn1Cc1cccc2c1CCNC2
2,140 to 142 °C,CC(C)(C)NC(=O)C1CCN(C(=O)CCl)CC1
3,96 °C,CCC[C@H]1CC[C@H]([C@H]2CC[C@H](C3=CC(=O)CCC3)CC2)CC1
4,117 °C,Cc1cccc(-c2nc3ccccc3n2Cc2ccccc2Cl)c1
5,230 to 231 °C,NS(=O)(=O)c1ccc(NC(=O)c2ccccc2S)cc1
6,211 °C,O=c1c2ccccc2nc(-c2ccccc2Cl)n1O
7,208 to 210 °C,Cc1ccc(N2CCN(Cc3ccc4c(c3)OCC(=O)N4)CC2)cc1
8,202 °C,CCOC(=O)c1cn(CCO)c2cc(Cl)c(F)cc2c1=O
9,118 °C,CN(C)c1ccc(C(=O)NC2CCN(C(c3ccccc3)c3ccccc3)CC2)c(N)c1
10,135 to 138 °C,COc1cc2ncc(C#N)c(Nc3ccc(F)c(Cl)c3)c2cc1NC(=O)C=CCN1CCSC1
11,62 °C,Cc1ccc(S(=O)(=O)NCCCC(NS(=O)(=O)c2ccc(-c3ccc(Cl)cc3)cc2)C(=O)O)cc1 (centres undefined)
12,148 to 150 °C,COC(=O)C(O)=CC(=O)c1cn(Cc2ccccc2)cc(Cc2ccccc2)c1=O
13,248 to 250 °C,CCOC(=O)c1cn(-c2cc(OC)c(F)cc2F)c2c(C)c([N+](=O)[O-])c(F)cc2c1=O
14,145 to 146 °C,CCn1nc(C)c2c1C(=O)Nc1ccccc1N2C(=O)CN1CCN(C)CC1
15,148 to 150 °C,N#CC(C(N)=O)c1ccccc1 (centres undefined)
16,120 to 122 °C,CC(C)c1cccc(C(C)C)c1NC(=O)NCCN1CCN(CCSc2nc3ccccc3[nH]2)CC1
17,169 to 174 °C,O=CNc1ccccc1CNC1CCC(=O)NC1=O (centres undefined)
18,70 to 71 °C,CC[Si](CC)(CC)OC1C(=O)NC1c1cccs1 (centres undefined)
19,60 to 62 °C,CCOC(=O)/C=C/c1ccccc1C#N
20,118 to 120 °C,CC(C)c1nc(CN2C(=O)C3(COc4cc5c(cc43)OCO5)c3ccccc32)co1 (centres undefined)
21,149 to 150 °C,CCC(C)C[C@@H]1O[C@H](CC(=O)Nc2ccc(OC(F)(F)C(=O)O)cc2)C(=O)N(CC(C)(C)CO)c2ccc(Cl)cc21 (some centres undefined)
22,> 300 °C,O=C(O)Cn1c2c([nH]c(=O)c1=O)CCC1=C2C=C(n2ccc(CN3CCN(c4ccc([N+](=O)[O-])cc4)CC3)c2)CC1
23,152 to 154 °C,COc1cn(-c2ccccc2F)nc(C(=O)N(C)OC)c1=O
24,124 to 126 °C,Oc1ccccc1NCCCCCCBr
25,220 to 224 °C,CCCCCCCCCCCCCCCCOC[C@@H]1OCCC[C@H]1OP(=O)([O-])OCC[N+](C)(C)C (relative stereo)

row,melting point,SMILES
1,138 to 144 °C,CCCCOC(=O)c1cc([N+](=O)[O-])c(Oc2ccc(OCc3ccccc3)cc2)c(S(N)(=O)=O)c1
2,95 to 96 °C,COCCCNC(=O)c1ccc(C(=O)N2CCN(c3ncccc3NC(C)C)CC2)nc1
3,148 to 149 °C,Cc1cc(OC(F)F)ccc1NC(=O)c1cccc([N+](=O)[O-])c1C(=O)NC(C)C
4,48 to 51 °C,O=CCCOc1ccc(CC2SC(=O)NC2=O)cc1 (centres undefined)
5,181 to 183 °C,CC(=O)NC1CC(=O)CC(=O)C1
6,103 to 106 °C,CCOc1nc(N)nc(C2CC2)n1
7,292 to 296 °C,Oc1ncnc2c(-c3ccc(Cc4ccc(Cl)cc4)cc3)cnn12
8,35 to 40 °C,CCCCCCCCCCCCCCCCCCN(C)[Si](C)(C)C
9,200 °C,CCNC(=O)c1c(Br)ccc(OC)c1[Si](C)(C)C
10,112 to 114 °C,O=C(CCl)c1cccn1Cc1ccccc1[N+](=O)[O-]
11,269 °C,N#Cc1c(N2CCN(C(=O)c3cccs3)CC2)c2cccnc2n(CC(=O)c2ccccc2)c1=O
12,202 to 203 °C,O=C(N[C@H](Cc1ccc(C(F)(F)F)cc1)[C@@H](O)c1ccc(F)cc1)c1ccc(CO)c2ccccc12 (racemic)
13,168 to 170 °C,O=C1CCc2c(-c3ccncc3)sc(-c3ccncc3)c21
14,77 to 78 °C,CCNC(=O)c1ccc(Cc2ccccc2)cn1
15,145 to 152 °C,CC(COc1ccc(CC2SC(=O)NC2=O)cc1)NCC(O)Cc1ccccc1 (centres undefined)
16,101 to 103 °C,O=c1c(Cl)coc2cc(OCCCCl)ccc12
17,272 to 274 °C,O=C(O)CN1C(=O)C(=Cc2ccc(Cl)cc2)SC1=S
18,160 to 161 °C,Cc1oc(-c2ccc(Cl)cc2)nc1CC(=O)O
19,259 to 260 °C,Cc1cc2c(s1)Nc1ccccc1NC2=S
20,108 to 109 °C,CCOc1cc(F)ccc1N1CCN(Cc2ccc(CNC(C)=O)cc2)CC1
21,236 to 239 °C,Cc1cnc2nc(NS(=O)(=O)c3ccccc3Cl)nn2c1
22,250 to 253 °C,Cc1cc2c(s1)Oc1ccc(Cl)cc1NC2=O
23,80 to 82 °C,COCC1(O)CCN(c2ccc(N3C[C@H](CNC(C)=O)OC3=O)cc2F)CC1

row,SMILES,melting point
1,CN(C)Cc1nnc(CO)n1-c1ccc(Cl)cc1C(=O)c1ccccc1Cl,138 to 141 °C
